Assay results published in patent US7517873B2, “Substituted pyrimidodiazepines” (Hoffman-La Roche Inc., priority 2007, dated 2009).

Biological target: T1, GST-PLK1 (Homo sapiens, UniProt P53350)
T1 construct: Full-length, active GST-PLK1 is purified from Sf9 insect cells; made in house; host or cells: Sf9 insect cells
Assay: Biochemical Characterization Assay: GST-PLK1 kinase HTRF assay with GST-p53 substrate
Conditions: full-length GST-PLK1, GST-p53 and ATP, 37° C. for 35 minutes, HTRF signal
Summary of the method: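 Full-length GST-PLK1 from Sf9 cells (3 ug/mL stock) with full-length E. coli GST-p53 substrate in HEPES pH 7 buffer with MgCl2, TCEP, orthovanadate, BSA and Triton X-100; compound stocks 0.6 nM-4 mM in DMSO. Reaction 35 min at 37 °C, EDTA-stopped; phospho-p53 detected by HTRF (Eu anti-rabbit/APC anti-GST).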

T1 sequence (P53350 whole entry): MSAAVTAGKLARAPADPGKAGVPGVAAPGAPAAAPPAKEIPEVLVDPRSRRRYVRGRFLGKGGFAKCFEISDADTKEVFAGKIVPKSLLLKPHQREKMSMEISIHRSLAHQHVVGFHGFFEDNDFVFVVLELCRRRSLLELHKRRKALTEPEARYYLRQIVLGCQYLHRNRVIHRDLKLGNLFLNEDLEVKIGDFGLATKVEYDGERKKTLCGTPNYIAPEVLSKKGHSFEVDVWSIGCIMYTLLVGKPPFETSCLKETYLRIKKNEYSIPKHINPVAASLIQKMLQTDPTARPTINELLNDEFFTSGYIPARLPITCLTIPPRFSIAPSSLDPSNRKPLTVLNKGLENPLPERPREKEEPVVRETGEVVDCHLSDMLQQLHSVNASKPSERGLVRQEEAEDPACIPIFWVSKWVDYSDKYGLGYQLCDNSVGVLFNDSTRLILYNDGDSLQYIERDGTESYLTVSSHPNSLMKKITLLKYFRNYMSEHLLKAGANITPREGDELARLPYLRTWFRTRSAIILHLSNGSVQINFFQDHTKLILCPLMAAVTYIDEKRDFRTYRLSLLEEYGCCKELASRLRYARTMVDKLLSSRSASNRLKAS

| IC50 [nM] | SMILES |
| --- | --- |
| 500 to 5000 | COc1cc(C(N)=O)ccc1Nc1ncc2c(n1)N(C1CCC1)CCC(=O)N2C [I-34, 4-(9-Cyclobutyl-5-methyl-6-oxo-6,7,8,9-tetrahydro-5H-pyrimido[4,5-b][1,4]diazepin-2-ylamino)-3-methoxy-benzamide] |
| > 5000 | COc1cc(C(=O)N(C)C)ccc1Nc1ncc2c(n1)N(C1CCC1)CCC(=O)N2C [I-35, 4-(9-Cyclobutyl-5-methyl-6-oxo-6,7,8,9-tetrahydro-5H-pyrimido[4,5-b][1,4]diazepin-2-ylamino)-3-methoxy-N,N-dimethyl-benzamide] |
| < 500 | COc1cc(C(=O)NCCCn2ccnc2)ccc1Nc1ncc2c(n1)N(C1CCC1)CCC(=O)N2C [I-36, 4-(9-Cyclobutyl-5-methyl-6-oxo-6,7,8,9-tetrahydro-5H-pyrimido[4,5-b][1,4]diazepin-2-ylamino)-N-(3-imidazol-1-yl-propyl)-3-methoxy-benzamide] |
| < 500 | COc1cc(C(=O)Nc2ccncc2)ccc1Nc1ncc2c(n1)N(C1CCC1)CCC(=O)N2C [I-37, 4-(9-Cyclobutyl-5-methyl-6-oxo-6,7,8,9-tetrahydro-5H-pyrimido[4,5-b][1,4]diazepin-2-ylamino)-3-methoxy-N-pyridin-4-yl-benzamide] |
| < 500 | COc1cc(C(=O)NC2CCN(C)CC2)ccc1Nc1ncc2c(n1)N(C1CCCC1)CC(C)(C)C(=O)N2C [I-39, 4-(9-Cyclopentyl-5,7,7-trimethyl-6-oxo-6,7,8,9-tetrahydro-5H-pyrimido[4,5-b][1,4]diazepin-2-ylamino)-3-methoxy-N-(1-methyl-piperidin-4-yl)-benzamide] |
| 500 to 5000 | COCCN1CCC(=O)N(C)c2cnc(Nc3ccc(C(=O)NC4CCN(C)CC4)cc3OC)nc21 [I-40, 3-Methoxy-4-[9-(2-methoxy-ethyl)-5-methyl-6-oxo-6,7,8,9-tetrahydro-5H-pyrimido[4,5-b][1,4]diazepin-2-ylamino]-N-(1-methyl-piperidin-4-yl)-benzamide] |
| < 500 | COc1cc(C(=O)NC2CCN(C)CC2)ccc1Nc1ncc2c(n1)N(C(C)C)CCC(=O)N2C [I-43, 4-(9-Isopropyl-5-methyl-6-oxo-6,7,8,9-tetrahydro-5H-pyrimido[4,5-b][1,4]diazepin-2-ylamino)-3-methoxy-N-(1-methyl-piperidin-4-yl)-benzamide] |
| < 500 | CCCCN1CCC(=O)N(C)c2cnc(Nc3ccc(C(=O)NC4CCN(C)CC4)cc3OC)nc21 [I-44, 4-(9-Butyl-5-methyl-6-oxo-6,7,8,9-tetrahydro-5H-pyrimido[4,5-b][1,4]diazepin-2-ylamino)-3-methoxy-N-(1-methyl-piperidin-4-yl)-benzamide] |
| < 500 | CN1CCC(NC(=O)c2ccc(Nc3ncc4c(n3)N(C3CCCC3)CC(C)(C)C(=O)N4C)cc2)CC1 [I-50, 4-(9-Cyclopentyl-5,7,7-trimethyl-6-oxo-6,7,8,9-tetrahydro-5H-pyrimido[4,5-b][1,4]diazepin-2-ylamino)-N-(1-methyl-piperidin-4-yl)-benzamide] |
| < 500 | COc1cc(C(=O)NC2CCN(C)CC2)ccc1Nc1ncc2c(n1)N(C1CCCC1)CC1(CC1)C(=O)N2C [I-54, 4-[(9-Cyclopentyl-6,7,8,9-tetrahydro-5-methyl-6-oxospiro[5H-pyrimido[4,5-b][1,4]diazepine-7,1′-cyclopropan]-2-yl)amino]-3-methoxy-N-(1-methyl-4-piperidinyl)benzamide] |
| < 500 | Cc1cc(C(=O)NC2CCN(C)CC2)ccc1Nc1ncc2c(n1)N(C1CCCC1)CC(C)(C)C(=O)N2C [I-56, 4-(9-Cyclopentyl-5,7,7-trimethyl-6-oxo-6,7,8,9-tetrahydro-5H-pyrimido[4,5-b][1,4]diazepin-2-ylamino)-3-methyl-N-(1-methyl-piperidin-4-yl)-benzamide] |
| < 500 | Cc1cc(C(=O)NC2CCN(C)CC2)ccc1Nc1ncc2c(n1)N(C1CCCC1)CC1(CC1)C(=O)N2C [I-61, 4-[(9-Cyclopentyl-6,7,8,9-tetrahydro-5-methyl-6-oxospiro[5H-pyrimido[4,5-b][1,4]diazepine-7,1′-cyclopropan]-2-yl)amino]-3-methyl-N-(1-methyl-4-piperidinyl)benzamide] |
| < 500 | CN1CCC(NC(=O)c2ccc(Nc3ncc4c(n3)N(C3CCCC3)CC3(CC3)C(=O)N4C)cc2)CC1 [I-62, 4-[(9-Cyclopentyl-6,7,8,9-tetrahydro-5-methyl-6-oxospiro[5H-pyrimido[4,5-b][1,4]diazepine-7,1′-cyclopropan]-2-yl)amino]-N-(1-methyl-4-piperidinyl)benzamide] |
| < 500 | CN1C(=O)C2(CC2)CN(C2CCCC2)c2nc(Nc3ccc(C(=O)NC4CCOCC4)cc3)ncc21 [I-63, 4-[(9-Cyclopentyl-6,7,8,9-tetrahydro-5-methyl-6-oxospiro[5H-pyrimido[4,5-b][1,4]diazepine-7,1′-cyclopropan]-2-yl)amino]-N-(tetrahydropyran-4-yl)benzamide] |
| 500 to 5000 | CN1CCC(NS(=O)(=O)c2ccc(Nc3ncc4c(n3)N(C3CCCC3)CC(C)(C)C(=O)N4C)cc2)CC1 [I-64, 4-(9-Cyclopentyl-5,7,7-trimethyl-6-oxo-6,7,8,9-tetrahydro-5H-pyrimido[4,5-b][1,4]diazepin-2-ylamino)-N-(1-methyl-piperidin-4-yl)-benzenesulfonamide] |
| < 500 | COc1cc(C(=O)NC2CCN(C)CC2)ccc1Nc1ncc2c(n1)N1CCC[C@@H]1CC(=O)N2C [I-102, (3R)-3-methoxy-4-(6-methyl-5-oxo-2,3,3a,4,5,6-hexahydro-1H-6,8,10,10b-tetraaza-benzo[e]azulen-9-ylamino)-N-(1-methyl-piperidin-4-yl)-benzamide] |
